Test results taken from PubChem BioAssay (NCI).
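Compound exposure: 48 hours, 5 concentrations, 96-well plates. Here, GI50 denotes the concentration required for 50% inhibition of growth. TGI denotes the concentration required for complete inhibition of growth.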

Key:
Assay in all cases: inhibition of tumour cell growth, NCI panel, 48 h; in the data active = GI50 below about 0.43 µM; inactive = the rest
[1] = test system: EKVX NSCLC
[2] = test system: HCC-2998 colon
[3] = test system: NCI-H460 lung
[4] = test system: OVCAR-3 ovarian
[5] = test system: OVCAR-5 ovarian
[6] = test system: RPMI-8226 leukemia
[7] = test system: SK-MEL-5 melanoma
[8] = test system: SNB-19 CNS
[9] = test system: UACC-257 melanoma
[10] = test system: MDA-MB-435

COc1cc(N2C(=O)[C@H](O)C2c2ccc(SC)cc2)cc(OC)c1OC (stereo partly specified)
0.0304 µM: TGI [7]
14.6 µM: TGI [6]
inactive: GI50 [9] 14.6 µM
13.1 µM: TGI [3]
0.0138 µM: TGI [4]
active: GI50 [1] < 0.01 µM | GI50 [2] 0.0238 µM | GI50 [3] < 0.01 µM | GI50 [4] < 0.01 µM | GI50 [5] 0.0237 µM | GI50 [6] < 0.01 µM | GI50 [7] < 0.01 µM | GI50 [8] < 0.01 µM
> 100 µM: TGI [1] | TGI [5] | TGI [8] | TGI [9]
65.3 µM: TGI [2]

CC#CCC1CCC(OCC)=CC1=O (stereo unspecified)
> 100 µM: TGI [1] | TGI [3] | TGI [4] | TGI [5] | TGI [6] | TGI [7] | TGI [8] | TGI [9]

C/C(=C\c1ccc2ccccc2c1)[N+](=O)[O-]
3.87 µM: TGI [7]
2.9 µM: TGI [9]
4.39 µM: TGI [6]
4.23 µM: TGI [2]
3.37 µM: TGI [4]
inactive: GI50 [2] 2.08 µM | GI50 [10] 1.81 µM | GI50 [3] 1.88 µM | GI50 [4] 1.91 µM | GI50 [5] 1.87 µM | GI50 [6] 1.57 µM | GI50 [7] 1.79 µM | GI50 [8] 6.15 µM | GI50 [9] 1.56 µM
3.83 µM: TGI [3]
3.63 µM: TGI [5]
19.7 µM: TGI [8]
3.6 µM: TGI [10]

N#CC(C#N)=C1NC(=O)CC(=O)N1
> 100 µM: TGI [1] | TGI [2] | TGI [3] | TGI [4] | TGI [5] | TGI [6] | TGI [7] | TGI [8] | TGI [9]

COc1ccc(C=O)c([N+](=O)[O-])c1
> 100 µM: TGI [1] | TGI [3] | TGI [4] | TGI [6] | TGI [7] | TGI [8] | TGI [9]

O=C1/C(=C/c2ccccc2[N+](=O)[O-])Cc2ccccc21
14 µM: TGI [7]
13.1 µM: TGI [3]
5.36 µM: TGI [5]
3.14 µM: TGI [2]
7.84 µM: TGI [6]
41.2 µM: TGI [8]
3.2 µM: TGI [4]
inactive: GI50 [2] 1.64 µM | GI50 [10] 3.06 µM | GI50 [3] 1.15 µM | GI50 [4] 1.72 µM | GI50 [5] 2.19 µM | GI50 [6] 2.44 µM | GI50 [7] 3.11 µM | GI50 [8] 10.6 µM | GI50 [9] 1.83 µM
11.8 µM: TGI [10]
4.35 µM: TGI [9]

N#CC(=C1C=CC(=NO)C=C1)c1ccc(Cl)cc1
56.4 µM: TGI [3]
33.1 µM: TGI [2]
21.3 µM: TGI [7]
15.3 µM: TGI [6]
> 100 µM: TGI [8]
13.2 µM: TGI [4]
28.8 µM: TGI [5]

O=C1C(=C([O-])c2ccccc2)C(=O)c2ccccc21.O=C1C(=C([O-])c2ccccc2)C(=O)c2ccccc21.[Fe+2]
> 100 µM: TGI [2] | TGI [4] | TGI [5] | TGI [6] | TGI [7] | TGI [8] | TGI [9]
inactive: GI50 [2] 69.5 µM | GI50 [4] 89.5 µM | GI50 [5] > 100 µM | GI50 [6] 65.7 µM | GI50 [7] > 100 µM | GI50 [8] > 100 µM | GI50 [9] > 100 µM

OCc1ccc(N2CCCC2c2ccccc2)cc1Cl (stereo unspecified)
17.5 µM: TGI [2]
1.52 µM: TGI [5]
inactive: GI50 [2] 4.88 µM | GI50 [10] 1.74 µM | GI50 [3] 0.833 µM | GI50 [4] 2.3 µM | GI50 [6] 4.36 µM | GI50 [7] 3.33 µM | GI50 [8] 13.5 µM | GI50 [9] 0.544 µM
active: GI50 [5] 0.351 µM
> 84 µM: TGI [8]
2.11 µM: TGI [9]
7.22 µM: TGI [3]
9.36 µM: TGI [7]
23.6 µM: TGI [6]
4.18 µM: TGI [10]
10.1 µM: TGI [4]

Cc1cccc(C)c1NC(=O)/C(=N/NC(N)=S)C(C)C(=O)c1ccc(Cl)cc1 (stereo unspecified)
> 100 µM: TGI [1] | TGI [2] | TGI [3] | TGI [4] | TGI [5] | TGI [6] | TGI [7] | TGI [8] | TGI [9]

OCC12C3C4C5C3C1C5C42 (stereo unspecified)
> 100 µM: TGI [1] | TGI [10] | TGI [3] | TGI [4] | TGI [5] | TGI [7] | TGI [8] | TGI [9]

CC/C=C\C/C=C\C/C=C\CCCCCCCC(=O)OCC(O)CO (stereo unspecified)
> 100 µM: TGI [1] | TGI [2] | TGI [3] | TGI [5] | TGI [7] | TGI [8] | TGI [9]
> 77.7 µM: TGI [6]
> 74.5 µM: TGI [4]

CCOC(=O)C1=C(C)N(c2ccc(Cl)cc2)[C@]2(C#N)C(O)=C(Cl)C(Cl)=C(O)[C@]12C#N
> 100 µM: TGI [10] | TGI [3] | TGI [4] | TGI [6] | TGI [7] | TGI [8] | TGI [9]
43.2 µM: TGI [1]
inactive: GI50 [1] 6.24 µM | GI50 [10] 44.8 µM | GI50 [3] > 100 µM | GI50 [4] 65 µM | GI50 [6] 48.6 µM | GI50 [7] > 100 µM | GI50 [8] > 100 µM | GI50 [9] > 100 µM

COc1ccc(-c2cc(Cc3cccs3)c(=O)[nH]n2)cc1
49.5 µM: TGI [7]
> 100 µM: TGI [1] | TGI [2] | TGI [4] | TGI [5] | TGI [8] | TGI [9]

CCC(=O)C12OC3OC(C)(C)OC3C1OC(C)(C)O2 (stereo unspecified)
> 100 µM: TGI [1] | TGI [2] | TGI [3] | TGI [4] | TGI [5] | TGI [8] | TGI [9]

O=C1NC(=O)C(N2C(=O)c3ccccc3C2=O)CC1O (stereo unspecified)
inactive: GI50 [1] > 100 µM | GI50 [10] > 100 µM | GI50 [3] > 100 µM | GI50 [4] > 100 µM | GI50 [5] > 100 µM | GI50 [6] > 100 µM | GI50 [8] > 100 µM | GI50 [9] > 100 µM
> 100 µM: TGI [1] | TGI [10] | TGI [3] | TGI [4] | TGI [5] | TGI [6] | TGI [8] | TGI [9]

CCN(CC)CC1c2ccccc2C(CNc2ccccc2)N1C (stereo unspecified)
> 100 µM: TGI [1] | TGI [2] | TGI [3] | TGI [4] | TGI [5] | TGI [6] | TGI [7] | TGI [8] | TGI [9]

FC(F)(F)c1ccc(-c2cnc(-c3ncon3)nc2NC2CCCCCC2)cc1
49.3 µM: TGI [6]
> 100 µM: TGI [2] | TGI [10] | TGI [3] | TGI [4] | TGI [5] | TGI [7] | TGI [8] | TGI [9]
inactive: GI50 [2] 56.6 µM | GI50 [10] 71.3 µM | GI50 [3] 37.2 µM | GI50 [4] 36.8 µM | GI50 [5] > 100 µM | GI50 [6] 18.4 µM | GI50 [7] 40.7 µM | GI50 [8] 29.2 µM | GI50 [9] 53.2 µM

CCCCCCCCCCCCCCCCCC[n+]1ccc2c(C)c3c(c(C)c2c1)c1cc(O)ccc1n3CC
4.18 µM: TGI [3]
6.36 µM: TGI [8]
2.85 µM: TGI [7]
9.93 µM: TGI [1]
20.6 µM: TGI [2]
24.8 µM: TGI [5]
17.5 µM: TGI [6]
4.68 µM: TGI [4]
inactive: GI50 [1] 2.15 µM | GI50 [2] 2.9 µM | GI50 [3] 1.72 µM | GI50 [4] 1.88 µM | GI50 [5] 4.38 µM | GI50 [6] 1.58 µM | GI50 [7] 1.34 µM | GI50 [8] 1.79 µM

O=C1CC(c2c[nH]c3ccccc23)C(=O)N1 (stereo unspecified)
> 100 µM: TGI [1] | TGI [2] | TGI [3] | TGI [4] | TGI [5] | TGI [6] | TGI [7] | TGI [9]

COc1cc2c3c(n(C)c(=O)c2cc1OC)-c1cc2c(cc1/C3=C\CCCCN1C(=O)c3ccccc3C1=O)OCO2
> 100 µM: TGI [10] | TGI [4] | TGI [5] | TGI [6] | TGI [8] | TGI [9]
43.7 µM: TGI [3]
39.4 µM: TGI [7]
58.7 µM: TGI [2]
inactive: GI50 [2] 12.2 µM | GI50 [10] > 100 µM | GI50 [3] 3.52 µM | GI50 [4] 38.1 µM | GI50 [5] 74 µM | GI50 [6] 8.5 µM | GI50 [7] 13 µM | GI50 [8] 36.6 µM | GI50 [9] 23.4 µM

CC(=O)Nc1ccc(SC#N)c2c(NC(C)=O)cccc12
> 100 µM: TGI [1] | TGI [2] | TGI [3] | TGI [4] | TGI [5] | TGI [7] | TGI [8] | TGI [9]
73.9 µM: TGI [6]

Cc1c(/C=N/N=C/c2[nH]c(C(=O)OC(C)(C)C)c(C)c2C)[nH]c(C(=O)OC(C)(C)C)c1C
> 100 µM: TGI [1] | TGI [2] | TGI [3] | TGI [4] | TGI [5] | TGI [6] | TGI [7] | TGI [8] | TGI [9]

COc1cc(C(=O)C/C(CCC(=O)Nc2ccccc2[N+](=O)[O-])=N\NC(N)=O)ccc1O
> 100 µM: TGI [1] | TGI [2] | TGI [3] | TGI [4] | TGI [5] | TGI [6] | TGI [7] | TGI [8] | TGI [9]

COC(=O)C1(C)CCc2c(OC)ccc(OC)c2C1=O (stereo unspecified)
> 100 µM: TGI [1] | TGI [2] | TGI [4] | TGI [5] | TGI [6] | TGI [7] | TGI [8] | TGI [9]

CN=c1ccc2nc3ccc(N)cc3sc-2c1
38.6 µM: TGI [2]
inactive: GI50 [2] 4.32 µM | GI50 [10] 1.42 µM | GI50 [3] 3.86 µM | GI50 [4] 1.02 µM | GI50 [5] 9.54 µM | GI50 [7] 0.448 µM | GI50 [8] 3.25 µM | GI50 [9] 1.18 µM
5.04 µM: TGI [9]
3.24 µM: TGI [10]
active: GI50 [6] 0.32 µM
23.7 µM: TGI [5]
1.88 µM: TGI [7]
13.8 µM: TGI [4]
18 µM: TGI [6]
> 100 µM: TGI [3] | TGI [8]

Fc1ccc(C2SCc3nc4ccccc4n32)c(F)c1 (stereo unspecified)
79.6 µM: TGI [7]
> 100 µM: TGI [1] | TGI [2] | TGI [3] | TGI [4] | TGI [5] | TGI [6] | TGI [8] | TGI [9]

CC1(O)C=CC(=O)C=C1
70.3 µM: TGI [8]
34.2 µM: TGI [9]
44.9 µM: TGI [3]
> 100 µM: TGI [1] | TGI [2] | TGI [5] | TGI [6]
51.4 µM: TGI [4]
> 89.4 µM: TGI [7]

O=C(NC1CCCCC1)NS(=O)(=O)c1ccc2c(c1)CCC2
> 100 µM: TGI [1] | TGI [2] | TGI [4] | TGI [5] | TGI [6] | TGI [8] | TGI [9]
